Consider 3 compounds from ChEMBL document CHEMBL5620345, “Metal binding pharmacophore click-derived discovery of new broad-spectrum metallo-β-lactamase inhibitors” (Eur J Med Chem, 2023).

For assay [1], the system named is Escherichia coli. Put plainly: Antibacterial activity against Escherichia coli C1541 expressing blaVIM-2 clinical isolates assessed as meropenem MIC incubated for 16 to 18 hrs by broth microdilution method. Type of assay: functional. Conditions: time 16-18 hrs.
Assay [2] is described as follows: Inhibition of recombinant VIM-1 (unknown origin) expressed in Escherichia coli (DE3) cells using FC5 as substrate by microplate reader assay.
Assay [3] relates to Escherichia coli. Put plainly: Antibacterial activity against Escherichia coli C1580 expressing blaIMP-1 clinical isolates assessed as meropenem MIC incubated for 16 to 18 hrs by broth microdilution method. Type of assay: functional. Conditions: time 16-18 hrs. On the technique in general: In broth dilution the organism is exposed to a series of concentrations in liquid medium.

Assay [4] is described as follows: Inhibition of recombinant NDM1 (unknown origin) expressed in Escherichia coli (DE3) cells using FC5 as substrate by microplate reader assay.
Assay [5] concerns Escherichia coli. Put plainly: Antibacterial activity against Escherichia coli C1580 expressing blaIMP-1 clinical isolates assessed as fold potentiation incubated for 16 to 18 hrs by broth microdilution method. Type of assay: functional. Conditions: time 16-18 hrs.
Assay [6] relates to Enterobacterales. The assay is described as follows: Antibacterial activity against Carbapenem-Resistant Enterobacterales 19 expressing blaNDM-1 clinical isolates assessed as fold potentiation incubated for 16 to 18 hrs by broth microdilution method. The assay is classed as functional. As to conditions: time 16-18 hrs.
For assay [7], the system named is Enterobacterales. Put plainly: Antibacterial activity against Carbapenem-Resistant Enterobacterales 19 expressing blaNDM-1 clinical isolates assessed as meropenem MIC incubated for 16 to 18 hrs by broth microdilution method. The assay is classed as functional. As to conditions: time 16-18 hrs.
The nature of assay [8]: Inhibition of recombinant his tagged VIM-2 (unknown origin) expressed in Escherichia coli (DE3) cells using FC5 as substrate by microplate reader assay.
The test system of assay [9] is Escherichia coli. Put plainly: Antibacterial activity against Escherichia coli BAA2452 expressing blaNDM-1 clinical isolates assessed as fold potentiation incubated for 16 to 18 hrs by broth microdilution method. As to conditions: time 16-18 hrs. The assay is classed as functional.
Assay [10] is described as follows: Inhibition of recombinant VIM-5 (unknown origin) expressed in Escherichia coli (DE3) cells using FC5 as substrate by microplate reader assay.
Assay [11] has as its system Escherichia coli. The assay is described as follows: Antibacterial activity against Escherichia coli C1541 expressing blaVIM-2 clinical isolates assessed as fold potentiation incubated for 16 to 18 hrs by broth microdilution method. As to conditions: time 16-18 hrs. The assay is classed as functional.
Assay [12] can be described thus: Inhibition of recombinant his tagged IMP1 (unknown origin) expressed in Escherichia coli (DE3) cells using FC5 as substrate by microplate reader assay.
Assay [13] relates to Klebsiella pneumoniae. Put plainly: Antibacterial activity against Klebsiella pneumoniae BAA2470 expressing blaNDM-1 clinical isolates assessed as fold potentiation incubated for 16 to 18 hrs by broth microdilution method. As to conditions: time 16-18 hrs. Type of assay: functional.
In assay [14] the test system is Klebsiella pneumoniae. Put plainly: Antibacterial activity against Klebsiella pneumoniae BAA2470 expressing blaNDM-1 clinical isolates assessed as meropenem MIC incubated for 16 to 18 hrs by broth microdilution method. Type of assay: functional. Conditions: time 16-18 hrs.
In assay [15] the test system is Escherichia coli. Put plainly: Antibacterial activity against Escherichia coli BAA2452 expressing blaNDM-1 clinical isolates assessed as meropenem MIC incubated for 16 to 18 hrs by broth microdilution method. Type of assay: functional. As to conditions: time 16-18 hrs.

Broadly, the MIC is the lowest concentration that inhibits growth of the organism. By IC50 is commonly meant the point on the concentration scale where inhibition reaches its midpoint.

Regarding `O=P(O)(O)Cc1cccc(-n2cc(-c3ccccc3Br)nn2)c1`, the MIC with Escherichia coli [1] came out at 4 µg/mL; in the assay with Escherichia coli [3] it was 2 µg/mL; with Enterobacterales [7], 16 µg/mL; with Klebsiella pneumoniae [14], 128 µg/mL; in the assay with Escherichia coli [15] it was 32 µg/mL. The 50% inhibitory concentration (IC50) came to 7.16 µM in assay [2]; 5.2 µM in [4]; 0.72 µM in assay [8]; 0.095 µM in assay [10]; 1.9 µM in [12]. Further, the “fold change (FC)” value with Escherichia coli [5] was 16; with Enterobacterales [6] it was 4; in the assay on Escherichia coli [9] it was 4; in the assay with Escherichia coli [11], 4; with Klebsiella pneumoniae [13], more than 1.

`O=P(O)(O)Cc1cccc(-n2cc(-c3ccc(Br)cc3)nn2)c1`: the minimum inhibitory concentration (MIC) in the assay on Escherichia coli [1] was 4 µg/mL; in the assay on Escherichia coli [3], 2 µg/mL; with Enterobacterales [7] it was 16 µg/mL; with Klebsiella pneumoniae [14], 128 µg/mL; in the assay with Escherichia coli [15], 32 µg/mL. In addition, the IC50 worked out at 11.4 µM in assay [2]; 11.2 µM in assay [4]; 0.076 µM in [8]; 0.05 µM in assay [10]; 3.28 µM in [12]. Moreover, the “fold change (FC)” value with Escherichia coli [5] is listed as 16; in the assay on Enterobacterales [6] it was 4; in the assay with Escherichia coli [9] it was 4; in the assay with Escherichia coli [11] it was 4; in the assay on Klebsiella pneumoniae [13], more than 1.

Turning to `Nc1cccc(-c2cn(-c3cccc(CP(=O)(O)O)c3)nn2)c1`, the MIC came to 4 µg/mL in the assay on Escherichia coli [1]; 2 µg/mL in the assay with Escherichia coli [3]; 16 µg/mL with Enterobacterales [7]; 128 µg/mL in the assay on Klebsiella pneumoniae [14]; 32 µg/mL in the assay on Escherichia coli [15]. Moreover, the IC50 in [2] was determined as 2.21 µM; in [4] it was 7.27 µM; in assay [8], 0.092 µM; in [10], 0.019 µM; in [12], 1.96 µM. In addition, the “fold change (FC)” value with Escherichia coli [5] was 16; with Enterobacterales [6], 4; in the assay with Escherichia coli [9], 4; with Escherichia coli [11] it was 4; in the assay with Klebsiella pneumoniae [13], more than 1.
